Measured values taken from patent publication US7847063B2 (Sanwa Kagaku Kenkyusho Co., Ltd., priority 2003, dated 2010).
Ends that are not written are not given here.

How the values were obtained:
[1] = molecular target: T1, human GLP-1 receptor (Homo sapiens, UniProt P43220); assay: Cyclic AMP production activity in CHO-K1 cells expressing human GLP-1 receptors; type: cell-based; details: compared with native GLP-1; 37° C. 30 min; FIG. 7
T1 construct: expressed in transfected cells; host or cells: Chinese hamster ovary CHO-K1 cells
Method: 10 μl of 5N hydrochloric acid was added to the buffer to stop the incubation.

[2] = molecular target: T2, trypsin (Sus scrofa, UniProt P00761); details: pH 7.8
Method: 5 μl of 500 μg/ml trypsin solution (Promega: Cat. No. V5113) was added to 100 μl of this solution, and reacted at 37° C. for 1 hour. The reaction was stopped by adding 1200 μl of 71.5% ethanol (final 65%). The supernatant was collected by centrifugation at 15,000 rpm at 4° C. for 5 min, and evaporation was carried out. The dried solids were dissolved in distilled water and used for measuring activity.
The reaction was stopped by adding 1200 μl of 71.5% ethanol (final 65%). The supernatant was collected by centrifugation of 15,000 rpm at 4° C. for 5 min and evaporation was carried out. The dried solids were dissolved in distilled water and used for measuring the activity.

[3] = test system: Langerhans islets; assay: Insulin secretion-promoting activity in isolated Langerhans islets; type: cell-based, ICR mouse; details: 16.7 mM glucose, 37° C. 30 min, FIG. 13
Excerpt: Langerhans islets were extracted from ICR mouse pancreas with collagenase, 2 to 3 Langerhans islets were placed per well of 24-well plates, and cultured overnight.

[4] = Hypoglycemic effect in oral glucose tolerance test (OGTT) by subcutaneous administration; type: in vivo; details: mice fasted overnight, 1 g/kg glucose orally, peptide 5, 20 μg/kg dorsal subcutaneously; FIG. 14
Method: Physiological saline was administered to the control group. Before loading glucose and 20, 60, 120 min after loading, blood was collected chronologically from subocular venous plexus, to measure blood glucose level. […] Moreover, the action continued until 120 min after the administration (FIG. 15).

[5] = molecular target: DPP-IV (Sus scrofa, UniProt P22411)
[6] = molecular target: T2, trypsin
Method: To this diluent, 6 μl of 83 μg/ml trypsin solution (Promega: Cat. No. V5113) was added. The resultant was reacted at 37° C. for 1, 2, 4, 6 or 20 hours, and then the reaction was stopped by adding 1200 μl of 71.5% ethanol (final 65%). The supernatant was collected by centrifugation at 15,000 rpm at 4° C. for 5 min and evaporation was carried out. The dried solids were dissolved in distilled water and the activity was measured.

T2 sequence (P00761 9-231): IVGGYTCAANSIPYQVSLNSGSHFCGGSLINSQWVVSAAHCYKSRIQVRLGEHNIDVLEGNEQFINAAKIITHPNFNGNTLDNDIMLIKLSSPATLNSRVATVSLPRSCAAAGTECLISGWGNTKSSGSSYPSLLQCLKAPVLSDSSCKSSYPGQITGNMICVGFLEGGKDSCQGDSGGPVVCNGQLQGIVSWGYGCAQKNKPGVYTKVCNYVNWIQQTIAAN
Sequence of DPP-IV (P22411 whole entry): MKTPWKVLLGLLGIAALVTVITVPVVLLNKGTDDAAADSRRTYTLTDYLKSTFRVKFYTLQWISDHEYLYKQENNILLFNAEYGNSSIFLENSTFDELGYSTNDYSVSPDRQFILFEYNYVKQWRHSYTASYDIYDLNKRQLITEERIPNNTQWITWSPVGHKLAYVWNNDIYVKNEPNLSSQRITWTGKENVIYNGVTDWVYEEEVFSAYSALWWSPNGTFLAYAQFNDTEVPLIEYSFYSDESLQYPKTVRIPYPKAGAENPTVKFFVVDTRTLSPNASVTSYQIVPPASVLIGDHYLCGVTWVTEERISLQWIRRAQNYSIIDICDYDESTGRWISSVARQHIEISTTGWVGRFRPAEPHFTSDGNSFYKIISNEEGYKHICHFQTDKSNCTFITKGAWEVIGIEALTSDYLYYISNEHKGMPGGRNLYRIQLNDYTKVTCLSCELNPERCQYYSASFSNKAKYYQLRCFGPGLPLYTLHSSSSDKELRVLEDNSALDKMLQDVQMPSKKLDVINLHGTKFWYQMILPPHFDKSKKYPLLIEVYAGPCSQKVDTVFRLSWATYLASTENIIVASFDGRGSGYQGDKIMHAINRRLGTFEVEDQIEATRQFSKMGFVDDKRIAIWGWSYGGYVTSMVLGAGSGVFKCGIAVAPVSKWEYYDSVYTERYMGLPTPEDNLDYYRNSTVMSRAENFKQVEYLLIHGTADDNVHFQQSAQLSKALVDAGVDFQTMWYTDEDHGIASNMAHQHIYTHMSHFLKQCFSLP
T1 sequence (P43220 24-463): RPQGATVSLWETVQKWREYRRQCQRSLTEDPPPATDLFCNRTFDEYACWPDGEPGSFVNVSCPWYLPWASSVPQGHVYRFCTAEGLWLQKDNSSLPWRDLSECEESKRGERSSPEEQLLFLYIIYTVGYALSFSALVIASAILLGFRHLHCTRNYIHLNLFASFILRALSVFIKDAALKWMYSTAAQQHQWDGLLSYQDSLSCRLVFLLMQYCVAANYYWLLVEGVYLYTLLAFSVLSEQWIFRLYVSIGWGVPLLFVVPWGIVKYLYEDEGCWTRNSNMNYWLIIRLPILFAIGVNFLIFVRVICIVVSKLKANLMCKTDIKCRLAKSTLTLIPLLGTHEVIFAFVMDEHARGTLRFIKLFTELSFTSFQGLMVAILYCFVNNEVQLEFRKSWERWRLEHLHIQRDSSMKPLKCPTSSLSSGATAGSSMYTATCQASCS

Row | Substance | cyclic AMP production activity [1] | activity before and after trypsin treatment (trypsin resistance) [2] | insulin secretion-promoting activity [3] | insulin secretion-promoting activity at high concentration ([3]; high concentration) | peak value of blood glucose increase / hypoglycemic action [4] | variation in activity by trypsin treatment (trypsin resistance) [2] | DPP-IV resistance [5] | cyclic AMP production activity versus trypsin treatment time [6]
1 | HAEGTFTSDVSSYLEGQAAQEFIAWLVNGR-NH2 [[Gln^26, Asn^34]-GLP-1 (7-36 amide)] | same level of cyclic AMP production activity as native GLP-1 | no difference of activity before and after trypsin treatment | – | – | – | – | – | –
2 | HSEGTFTSDVSSYLEGQAAQEFIAWLVNGR-OH [[Ser^8, Gln^26, Asn^34]-GLP-1 (7-36), [Ser^8, Gln^26, Asn^34]-GLP-1 (7-36)] | – | – | Amount-dependent insulin secretion-promoting activity | strong insulin secretion-promoting activity | strong action | no variation in activity by trypsin treatment | obvious DPP-IV resistance | –
3 | [Ser^8, Gln^26, Asp^34]-GLP-1 (7-36) | – | – | Amount-dependent insulin secretion-promoting activity | – | – | no variation in activity by trypsin treatment | obvious DPP-IV resistance | the activity was maintained regardless of the trypsin treatment time
4 | GLP-1 (7-36 amide) (HAEGTFTSDVSSYLEGQAAKEFIAWLVKGR-NH2) [native GLP-1, made by solid phase synthesis, reference compound] | – | – | Amount-dependent insulin secretion-promoting activity | – | – | – | – | –
